The results in this text go back to patent US9247759B2, “Identification of human T2R receptors that respond to bitter compounds that elicit the bitter taste in compositions, and the use thereof in assays to identify compounds that inhibit (block) bitter taste in compositions and use thereof” (SENOMYX, INC., priority 2007, dated 2016).

The target in the first assay is hT2R8 (Homo sapiens (Human), UniProt Q9NYW2). Nature of the assay: hT2R8 antagonist high-throughput FLIPR assay, stable cell line with G16g44, agonist andrographolide. It counts as cell-based. To be noted: read-out: IC50 on hT2R8 bitter receptor. The gist of the method: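 HEK293 cells stably co-expressing hT2R8 and chimeric G16g44, read on FLIPR. Test compounds added together with andrographolide (200 μM), which drives the receptor to 70–80% of maximal activity; antagonism seen as reduced agonist response.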
Sequence of hT2R8 (Q9NYW2 whole entry): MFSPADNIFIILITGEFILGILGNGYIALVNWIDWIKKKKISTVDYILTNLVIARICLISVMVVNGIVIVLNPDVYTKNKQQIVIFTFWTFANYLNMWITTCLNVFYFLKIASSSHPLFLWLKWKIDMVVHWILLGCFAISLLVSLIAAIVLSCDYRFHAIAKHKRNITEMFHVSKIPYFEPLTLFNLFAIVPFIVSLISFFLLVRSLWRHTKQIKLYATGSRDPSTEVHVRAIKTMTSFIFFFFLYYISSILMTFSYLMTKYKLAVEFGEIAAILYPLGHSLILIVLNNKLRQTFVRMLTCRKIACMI
On to `Cc1noc(C)c1Cn1cc(N2C(=O)[C@H](C)N(Cc3cccc(O)c3)C2=O)cn1` [Example 12-6, (S)-3-(1-((3,5-dimethylisoxazol-4-yl)methyl)-1H-pyrazol-4-yl)-1-(3-hydroxybenzyl)-5-methylimidazolidine-2,4-dione], for which the IC50 turned out to be 20 nM.
Turning to `Cc1noc(C)c1Cn1cc(N2C(=O)[C@@H](C)N(Cc3cccc(O)c3)C2=O)cn1` [Example 12-7, (R)-3-(1-((3,5-dimethylisoxazol-4-yl)methyl)-1H-pyrazol-4-yl)-1-(3-hydroxybenzyl)-5-methylimidazolidine-2,4-dione], the IC50 came out at 20 nM.
Regarding `Cc1noc(C)c1Cn1cc(N2C(=O)[C@H](C(C)C)N(Cc3cccc(O)c3)C2=O)cn1` [Example 12-8, (S)-3-(1-((3,5-dimethylisoxazol-4-yl)methyl)-1H-pyrazol-4-yl)-1-(3-hydroxybenzyl)-5-isopropylimidazolidine-2,4-dione], the IC50 stood at 650 nM.
As to `Cc1noc(C)c1Cn1cc(N2C(=O)[C@H](CO)N(Cc3cccc(O)c3)C2=O)cn1` [Example 12-9, (S)-3-(1-((3,5-dimethylisoxazol-4-yl)methyl)-1H-pyrazol-4-yl)-1-(3-hydroxybenzyl)-5-(hydroxymethyl)imidazolidine-2,4-dione], the IC50 amounted to 40 nM.
Still for that read-out and setting: the value for `Cc1noc(C)c1Cn1cc(N2C(=O)N(Cc3cccc(O)c3)C(C)(CO)C2=O)cn1` (stereo not shown) [Example 12-10, 3-(1-((3,5-dimethylisoxazol-4-yl)methyl)-1H-pyrazol-4-yl)-1-(3-hydroxybenzyl)-5-(hydroxymethyl)-5-methylimidazolidine-2,4-dione] was 130 nM.
For the compound `Cc1noc(C)c1Cn1cc(N2C(=O)[C@H](C)N(Cc3ccccc3)C2=O)cn1` [Example 12-11, (S)-1-benzyl-3-(1-((3,5-dimethylisoxazol-4-yl)methyl)-1H-pyrazol-4-yl)-5-methylimidazolidine-2,4-dione], the IC50 is 10 nM.
The same measure, in the same setting: the value for `COc1ccc(CN2C(=O)N(c3cnn(Cc4c(C)noc4C)c3)C(=O)C23CC3)cc1O` [Example 12-12, 6-(1-((3,5-dimethylisoxazol-4-yl)methyl)-1H-pyrazol-4-yl)-4-(3-hydroxy-4-methoxybenzyl)-4,6-diazaspiro[2.4]heptane-5,7-dione] was 20 nM; that for `COc1ccc(CN2C(=O)N(c3cnn(Cc4c(C)noc4C)c3)C(=O)C23CC3)cc1OC` [Example 12-13, 4-(3,4-dimethoxybenzyl)-6-(1-((3,5-dimethylisoxazol-4-yl)methyl)-1H-pyrazol-4-yl)-4,6-diazaspiro[2.4]heptane-5,7-dione] was 20 nM; that for `COCc1cccc(CN2C(=O)N(c3cnn(Cc4c(C)noc4C)c3)C(=O)C23CC3)c1` [Example 12-14, 6-(1-((3,5-dimethylisoxazol-4-yl)methyl)-1H-pyrazol-4-yl)-4-(3-(methoxymethyl)benzyl)-4,6-diazaspiro[2.4]heptane-5,7-dione] was 30 nM.
As for `Cc1noc(C)c1Cn1cc(N2C(=O)N(Cc3cccc(O)c3)C3(CC3)C2=O)cn1` [Example 12-15, 6-(1-((3,5-dimethylisoxazol-4-yl)methyl)-1H-pyrazol-4-yl)-4-(3-hydroxybenzyl)-4,6-diazaspiro[2.4]heptane-5,7-dione], the half-inhibitory concentration (IC50) is 20 nM.
Still for that read-out and setting: the value for `Cc1noc(C)c1Cn1cc(N2C(=O)N(Cc3ccc(C#N)cc3)C(C)(C)C2=O)cn1` [Example 12-16, 4-((3-(1-((3,5-dimethylisoxazol-4-yl)methyl)-1H-pyrazol-4-yl)-5,5-dimethyl-2,4-dioxoimidazolidin-1-yl)methyl)benzonitrile] was 40 nM; that for `Cc1noc(C)c1Cn1cc(N2C(=O)NC(C)(C)C2=O)cn1` [Example 12-16a, 3-(1-((3,5-dimethylisoxazol-4-yl)methyl)-1H-pyrazol-4-yl)-5,5-dimethylimidazolidine-2,4-dione] was 2270 nM.
`COc1cc(CN2C(=O)N(c3cnn(Cc4c(C)noc4C)c3)C(=O)C2(C)C)cc(OC)c1` [Example 12-18, 1-(3,5-dimethoxybenzyl)-3-(1-((3,5-dimethylisoxazol-4-yl)methyl)-1H-pyrazol-4-yl)-5,5-dimethylimidazolidine-2,4-dione]: the IC50 came out at 300 nM.
As to `Cc1noc(C)c1Cn1cc(N2C(=O)N(Cc3ccc(F)c(O)c3)C(C)(C)C2=O)cn1` [Example 12-19, 3-(1-((3,5-dimethylisoxazol-4-yl)methyl)-1H-pyrazol-4-yl)-1-(4-fluoro-3-hydroxybenzyl)-5,5-dimethylimidazolidine-2,4-dione], the IC50 was found to be 10 nM.
Regarding `COc1cc(CN2C(=O)N(c3cnn(Cc4c(C)noc4C)c3)C(=O)C2(C)C)ccc1F` [Example 12-20, 3-(1-((3,5-dimethylisoxazol-4-yl)methyl)-1H-pyrazol-4-yl)-1-(4-fluoro-3-methoxybenzyl)-5,5-dimethylimidazolidine-2,4-dione], the IC50 was determined as 180 nM.
Still for that read-out and setting: the value for `Cc1noc(C)c1CN1C(=O)N(c2cnn(Cc3c(C)noc3C)c2)C(=O)C1(C)C` [Example 12-21, 1-((3,5-dimethylisoxazol-4-yl)methyl)-3-(1-((3,5-dimethylisoxazol-4-yl)methyl)-1H-pyrazol-4-yl)-5,5-dimethylimidazolidine-2,4-dione] was 80 nM.
For `Cc1ccccc1CN1C(=O)N(c2cnn(Cc3c(C)noc3C)c2)C(=O)C1(C)C` [Example 12-22, 3-(1-((3,5-dimethylisoxazol-4-yl)methyl)-1H-pyrazol-4-yl)-5,5-dimethyl-1-(2-methylbenzyl)imidazolidine-2,4-dione], the concentration for half-maximal inhibition (IC50) stood at 100 nM.
As for `Cc1noc(C)c1Cn1cc(N2C(=O)N(C(C)c3ccccc3)C(C)(C)C2=O)cn1` (stereo not shown) [Example 12-24, 3-(1-((3,5-dimethylisoxazol-4-yl)methyl)-1H-pyrazol-4-yl)-5,5-dimethyl-1-(1-phenylethyl)imidazolidine-2,4-dione], the IC50 is 150 nM.
In the case of `Cc1noc(C)c1Cn1cc(N2C(=O)N(Cc3cc(C)n(C)n3)C(C)(C)C2=O)cn1` [Example 12-25, 1-((1,5-dimethyl-1H-pyrazol-3-yl)methyl)-3-(1-((3,5-dimethylisoxazol-4-yl)methyl)-1H-pyrazol-4-yl)-5,5-dimethylimidazolidine-2,4-dione], the IC50 is 160 nM.
For the compound `Cc1cc(CN2C(=O)N(c3cnn(Cc4c(C)noc4C)c3)C(=O)C2(C)C)n(C)n1` [Example 12-26, 1-((1,3-dimethyl-1H-pyrazol-5-yl)methyl)-3-(1-((3,5-dimethylisoxazol-4-yl)methyl)-1H-pyrazol-4-yl)-5,5-dimethylimidazolidine-2,4-dione], the concentration for half-maximal inhibition (IC50) came to 230 nM.
`Cc1noc(C)c1Cn1cc(N2C(=O)N(CCOc3ccccc3)C(C)(C)C2=O)cn1` [Example 12-27, 3-(1-((3,5-dimethylisoxazol-4-yl)methyl)-1H-pyrazol-4-yl)-5,5-dimethyl-1-(2-phenoxyethyl)imidazolidine-2,4-dione]: the 50% inhibitory concentration (IC50) is 350 nM.
Turning to `COCCN1C(=O)N(c2cnn(Cc3c(C)noc3C)c2)C(=O)C1(C)C` [Example 12-28, 3-(1-((3,5-dimethylisoxazol-4-yl)methyl)-1H-pyrazol-4-yl)-1-(2-methoxyethyl)-5,5-dimethylimidazolidine-2,4-dione], the IC50 was found to be 590 nM.
As for `Cc1noc(C)c1Cn1cc(N2C(=O)N(Cc3ccc(F)cc3)C(C)(C)C2=O)cn1` [Example 12-29, 3-(1-((3,5-dimethylisoxazol-4-yl)methyl)-1H-pyrazol-4-yl)-1-(4-fluorobenzyl)-5,5-dimethylimidazolidine-2,4-dione], the concentration for half-maximal inhibition (IC50) was determined as 80 nM.
In the case of `COc1ccc(CN2C(=O)N(c3cnn(Cc4c(C)noc4C)c3)C(=O)C2(C)C)cc1OC` [Example 12-30, 1-(3,4-dimethoxybenzyl)-3-(1-((3,5-dimethylisoxazol-4-yl)methyl)-1H-pyrazol-4-yl)-5,5-dimethylimidazolidine-2,4-dione], the half-inhibitory concentration (IC50) is 80 nM.
The same measure, in the same setting: as for `COc1ccccc1CN1C(=O)N(c2cnn(Cc3c(C)noc3C)c2)C(=O)C1(C)C` [Example 12-31, 3-(1-((3,5-dimethylisoxazol-4-yl)methyl)-1H-pyrazol-4-yl)-1-(2-methoxybenzyl)-5,5-dimethylimidazolidine-2,4-dione], the figure is 80 nM; as for `COc1ccc(CN2C(=O)N(c3cnn(Cc4c(C)noc4C)c3)C(=O)C2(C)C)cc1` [Example 12-33, 3-(1-((3,5-dimethylisoxazol-4-yl)methyl)-1H-pyrazol-4-yl)-1-(4-methoxybenzyl)-5,5-dimethylimidazolidine-2,4-dione], 110 nM; as for `COCc1cccc(CN2C(=O)N(c3cnn(Cc4c(C)noc4C)c3)C(=O)C2(C)C)c1` [Example 12-35, 3-(1-((3,5-dimethylisoxazol-4-yl)methyl)-1H-pyrazol-4-yl)-1-(3-(methoxymethyl)benzyl)-5,5-dimethylimidazolidine-2,4-dione], 130 nM.
With `Cc1noc(C)c1Cn1cc(N2C(=O)N(Cc3cccnc3)C(C)(C)C2=O)cn1` [Example 12-36, 3-(1-((3,5-dimethylisoxazol-4-yl)methyl)-1H-pyrazol-4-yl)-5,5-dimethyl-1-(pyridin-3-ylmethyl)imidazolidine-2,4-dione], the IC50 turned out to be 220 nM.
Still for that read-out and setting: the value for `Cc1noc(C)c1Cn1cc(N2C(=O)[C@@H](C)N(Cc3ccccc3)C2=O)cn1` [Example 12-37, (R)-1-benzyl-3-(1-((3,5-dimethylisoxazol-4-yl)methyl)-1H-pyrazol-4-yl)-5-methylimidazolidine-2,4-dione] was 10 nM.

The same assay, now with this note: table after Example 12-37; read-out: hT2R8 IC50.
In the case of `Cc1noc(C)c1Cn1cc(N2C(=O)N(Cc3ccc(O)cc3)C(C)(C)C2=O)cn1` [Example 12-38, 3-(1-((3,5-dimethylisoxazol-4-yl)methyl)-1H-pyrazol-4-yl)-1-(4-hydroxybenzyl)-5,5-dimethylimidazolidine-2,4-dione], the concentration for half-maximal inhibition (IC50) is 70 nM.
For `Cc1noc(C)c1Cn1cc(N2C(=O)N(Cc3ccccc3O)C(C)(C)C2=O)cn1` [Example 12-39, 3-(1-((3,5-dimethylisoxazol-4-yl)methyl)-1H-pyrazol-4-yl)-1-(2-hydroxybenzyl)-5,5-dimethylimidazolidine-2,4-dione], the IC50 was determined as 70 nM.

In general, IC50 refers to the concentration that gives 50% inhibition.
